A short description of data set [1]: Antioxidant activity by the spectrophotometric method of the free radical DPPH•. Conditions: molar ratio antioxidant/DPPH•; absorbance at T = 30 min. An excerpt:
The aim of the study was to evaluate the antioxidant activity of compound 11 by the spectrophotometric method of the free radical DPPH• (2,2-diphenyl-1-picrylhydrazyl). Indeed, antioxidants react with DPPH^• (purple), a stable free radical which is reduced to DPPH-H (yellow), and in consequence, the absorbance is decreased from the DPPH^• radical to the DPPH-H form. The degree of discoloration indicates the scavenging potential of the antioxidant compounds in terms of hydrogen donating ability (Popovici et al. Revue de génie industriel 2009, 4, 25-39).
The tested compounds were: Trolox ((±)-6-hydroxy-2,5,7,8-tetramethylchromane-2-carboxylic acid, Sigma Aldrich), as reference, and compound 11.
A stock solution of DPPH• was prepared at 200 μmol/mL in methanol and diluted in methanol in order to have a final concentration of around 150 μmol/mL to obtain a DO close to 0.9 in a plate of 96 wells. The antioxidant stock solutions were prepared at 1 mg/mL in methanol and the tested solutions were prepared from these antioxidant stock solutions as described in Table 7 below.
50 μL of each solution of antioxidant was added to the wells. Then, 200 μL of DPPH^• was added to each well.
The blank was prepared with only 250 μl of methanol and the negative control was prepared with 200 μL DPPH• and 50 μL of methanol.
The analysis was started immediately after the addition of DPPH• lasting for 2 hours (readings every 20 seconds). The absorbance was read at 515 nm. Each experiment was performed three times and had shown that the absorbance decreases while the concentration of antioxidant increased.
The activity of DPPH• is a percentage calculated as the ratio of A/An×100%.
The EC50 is expressed as a molar ratio of antioxidant (compound 11)/DPPH• (Popovici et al. Revue de génie industriel 2009, 4, 25-39). The EC50 was determined from the graph representing the percentage of DPPH• in function of the above mentioned molar ratio (moles of compound 11/moles of DPPH•).
The antioxidant activity of compound 11 was compared to that of Trolox used as a reference (considered as 100%).
For orientation: DPPH is a stable violet radical that fades when it is reduced.

Data set [2] relates to human tyrosinase. Kind of data set: HumanLike Tyrosinase Assay kit (Feldan), L-Tyrosine to dopachrome, OD at 490 nm. It counts as biochemical. Conditions: for OD at 490 nm: 1.12 mM. The procedure: The efficacy of compound 16 was evaluated by the inhibition of human tyrosinase in tubo and compared to the compound 11.
The assay was performed with a ready-to-use kit from Feldan Inc (Canada): the HumanLike Tyrosinase Assay kit (ref A021-a-001Kit).
The protocol was performed as described in the instructions for use of the manufacturer. Briefly, this kit is intended for the determination of human tyrosinase activity in presence of different inhibitors. The kit measures the conversion of L-Tyrosine into a dopachrome complex absorbing at 490 nm. The time course of the assay is 20 minutes, after which the results are analyzed and compared.
The compounds 11 and 16 have been tested at a final concentration of 1.12 mM.
The measured absorbances at 490 nm are reported in the table 5 and plotted in function of time in the FIG. 1.
Moreover for each compound the efficacy as tyrosinase inhibitor was calculated using the following formula: […]

A short description of data set [3]: In vitro human skin absorption, Franz diffusion cell: quantification in the receptor fluid (flux). Conditions: 200 μl at 2 mg/ml in water on human skin explant; receptor fluid T0 h to T24 h. The class given is in vitro ADME. An excerpt:
The aim of this study was to evaluate the absorption of compound 11 applied to excised human skin.
In vitro method using a Franz diffusion cell allows measuring the diffusion of chemicals into and across skin.
The tested compound is applied to the surface of a human skin explant separating the two chambers of a Franz diffusion cell. The compound remains on the skin for a specified time under specified conditions. The receptor fluid is sampled at time points throughout the experiment and analyzed for the tested compound. The skin may also be fractioned for separate analysis in epidermis or dermis layers.
The transcutaneous absorption was measured on human skin collected from the abdominoplasty of a single donor. At reception, the skin was defatted and cut in several fragments in order to perform Franz experiment. […]
The tested compounds were quantified, at T0 h and T24 h in the receptor solution bathing the inner surface of the skin (determination of flux), or at T24 h in the fractionated skin extracts (epidermis or dermis). […]
Sampling: 500 μL from the receptor fluid were removed at T0 h (replaced by Ringer solution) and at T24 h. These samples were analyzed by LC-MS/MS method for quantification of compound 11 and deoxyarbutin (results not shown). The quantity measured allowed to calculate a flux and to compare the absorption profile across the skin of compound 11 and deoxyarbutin.

Data set [4] is described as follows: In vitro stability: hydroquinone released in various chemical conditions (HPLC-UV/DAD). The class given is physicochemical. On the procedure: The stability of compound 11 was evaluated by the released of hydroquinone, which is a potentially toxic compound, in different chemical conditions (extreme conditions, simulating the application of these molecules on the skin) and it was compared to the deoxyarbutin.
This study involved different tests as degradation test and chemical stability (various chemical solutions, pH and temperatures).
Analytical Method (HPLC-UV/DAD Method)
Column Atlantis dC18 150 mm*4.6 mm*3 μm Waters, 30° C. Injection 50 μl, 25° C. λ: 220 nm, 265 nm, 285 nm. A-Acetonitrile B-Water; 0.8 ml/min; elution gradient: […]
This analytical method gave linear response for compound 11, Deoxyarbutin and Hydroquinone from 25 ng/mL to 1000 ng/mL. Dilution of samples had to be taken into account for each stability study to calculate the LLOQ of each compound.
The tested compounds are incubated in different solutions, at different times (see table 1). Then the analytical method was used to quantify remaining compounds and potential hydroquinone released (as possible degradation of compounds).
Hydroquinone (HQ) apparition is expressed as a percentage of initial compound 11 or Deoxyarbutin. The calculation was done in molar units and the limit of quantification fluctuates with the initial concentration.

Data set [5] concerns the target T1, human recombinant tyrosinase (Homo sapiens, UniProt P14679).
T1 sequence (P14679 19-529): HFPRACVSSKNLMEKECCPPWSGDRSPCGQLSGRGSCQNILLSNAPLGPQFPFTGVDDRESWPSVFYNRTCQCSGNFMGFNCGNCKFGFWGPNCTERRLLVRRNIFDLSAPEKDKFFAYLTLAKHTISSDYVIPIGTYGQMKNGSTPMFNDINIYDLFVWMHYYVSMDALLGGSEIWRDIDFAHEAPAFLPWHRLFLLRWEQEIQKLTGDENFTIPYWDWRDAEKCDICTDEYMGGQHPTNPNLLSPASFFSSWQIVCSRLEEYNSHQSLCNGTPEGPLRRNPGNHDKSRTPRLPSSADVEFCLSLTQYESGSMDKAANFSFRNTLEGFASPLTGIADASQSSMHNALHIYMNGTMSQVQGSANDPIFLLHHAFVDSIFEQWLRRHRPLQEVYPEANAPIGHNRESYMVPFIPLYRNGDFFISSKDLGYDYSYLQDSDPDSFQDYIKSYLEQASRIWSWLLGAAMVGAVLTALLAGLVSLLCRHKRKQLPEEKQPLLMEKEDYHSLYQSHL
Description: Inhibition of human tyrosinase in tubo (L-DOPA substrate, OD at 477 nm), IC50. The class given is biochemical. The settings on record: Tyrosinase Concentration 300 U/mL. The procedure: Substrate solution: L-DOPA (1 mg/mL) Solution B (L-DOPA 20 mg/Purified water up to 20 mL)
Preparation of Test Solutions (for IC50 Test—Examples for Deoxyarbutin)
Inhibitors solutions deoxyarbutin (1 mg/mL): Deoxyarbutin 20 mg in purified water up to 20 mL
This assay used a 96-well plate. Test solutions and controls were made several times.
The results were calculated from the OD measured at time point 20 min.
The determination of half maximal inhibitory concentration (IC50) was performed using the following formula.

Broadly, the IC50 is the concentration needed to halve the response being measured.

For the compound `Cc1c(C)c2c(c(C)c1O)CCC(C)(C(=O)O)O2` (racemic) [Trolox, (±)-6-hydroxy-2,5,7,8-tetramethylchromane-2-carboxylic acid, reference compound], the “EC50 (Ratio antioxidant/DPPH•) Mean” value in data set [1] is recorded as 0.240.

With `Oc1ccc(OC2CC(O)CCC2(F)F)cc1` (stereo not shown) [Compound 16], the “OD at 490 nm” value was found to be 0.0000 in data set [2] (time 0 min); 0.0105 in data set [2] (time 1 min); 0.0185 in data set [2] (time 2 min); 0.0285 in data set [2] (time 3 min); 0.0385 in data set [2] (time 4 min); 0.0505 in data set [2] (time 5 min). The “OD at 490 nm” value in data set [2] (time 6 min) worked out at 0.0605; in data set [2] (time 7 min), 0.0720; in data set [2] (time 8 min), 0.0815; in data set [2] (time 9 min), 0.0925; in data set [2] (time 10 min) it was 0.1025; in data set [2] (time 11 min) it was 0.1125. Besides, the “OD at 490 nm” value in data set [2] (time 12 min) came out at 0.1225; in data set [2] (time 13 min) it was 0.1330; in data set [2] (time 14 min), 0.1435; in data set [2] (time 15 min) it was 0.1545; in data set [2] (time 16 min), 0.1650; in data set [2] (time 17 min), 0.1765. Further, the “OD at 490 nm” value in data set [2] (time 18 min) worked out at 0.1885; in data set [2] (time 19 min), 0.2000; in data set [2] (time 20 min) it was 0.2115. Further, the “Inhibitor efficacy (%)” value in data set [2] (Compound at 1.12 mM, T = 20 min) was 13.7%.

For the compound `Oc1ccc(OC2CCCCO2)cc1` (stereo not shown) [Deoxyarbutin, reference compound], in data set [3], the “Flux, mean (n = 3)” value was determined as 3.98 μg/h/cm^2. Also, the “% Hydroquinone released” value in data set [4] (Ringer's solution pH 5.5 at 70° C., 24 H) is 11.83%. Further, the “% Hydroquinone released” value in data set [4] (Ringer's solution pH 8.5 at 70° C., 24 H) was 88.76%. Further, in data set [4] (Synthetic perspiration at RT, 48 H), the “% Hydroquinone released” value was 128.61%. Moreover, the “% Hydroquinone released” value in data set [4] (Water at room temperature, 14 Days) is 4.20%. The “Calculated IC50 Mean” value in data set [5] (mean of 4 tests) is 53 µg/mL. Besides, the IC50 in data set [5] (read-out: IC50) worked out at 272 µM. Further, in data set [5] (time 20 min), the “Calculated IC50 Test #1” value is 26 µg/mL, the “Calculated IC50 Test #2” value is 45 µg/mL, the “Calculated IC50 Test #3” value is 80 µg/mL and the “Calculated IC50 Test #4” value was 60 µg/mL.

Source of the values: patent publication US10351501B2, “Gem difluorocompounds as depigmenting or lightening agents” (TFCHEM, priority 2015, dated 2019).
